Reference: paper PMC6423055, “Cathelicidins PMAP-36, LL-37 and CATH-2 are similar peptides with different modes of action” (Scientific Reports, 2019)
Like-named read-outs stand apart in the source and are kept apart here. Positions of bridges follow the written chain, without caps; N, C: chain ends. Chains are numbered I, II in the order given. No end group written: not given here.

Columns and labels:
[1] = test system: porcine PBMCs; assay: Cell viability, WST-1 assay; conditions: WST-1, 24 h, effect at 20–40 μM, N = 6
[2] = test system: Escherichia coli O78; assay type: cell-based
Description: Escherichia coli O78 (E. coli) (Clinical isolate, Zoetis Animal Health, Kalamazoo, MI, USA) was grown in Mueller Hinton Broth (MHB) (Becton Dickinson, USA) to mid-logarithmic phase under constant shaking (200 RPM) at 37 °C. Antimicrobial activity of the peptides was tested using the colony count assay as described before. […] Next, 10-fold dilutions were made, of which 100 μl of the dilutions was spread to tryptic soy agar (TSA) (Oxoid, Basingstoke, UK) plates. Plates were incubated overnight at 37 °C and colonies were counted to determine the number of surviving bacteria. Minimal Bactericidal Concentration (MBC) was defined as ≤100 CFU/ml, the detection limit of the assay.
(§1) For transmission electron microscopy (TEM), E. coli was used in a higher concentration, (5*10^8 CFU/ml). […] E. coli was incubated with the peptides at MBC concentration or sub-MBC concentration (4x below MBC concentration). After 60 min at 37 °C, fixative (4% glutaraldehyde, 5 mM CaCl2, 10 mM MgCl2 (all from Merck, Darmstadt, Germany) in 0.1 M sodium cacodylate buffer (Sigma) pH 7.4) was added 1:1 to the bacterial-peptide mixture and left for fixation overnight at 4 °C. Samples were washed three times in 0.1 M sodium cacodylate buffer and resuspended in 4% low melting point agarose (Sigma). Samples were post-fixed with 1% osmium tetroxide (Electron Microscopy Sciences (EMS), Hatfield, PA, USA), 1.5% K3Fe(CN)6 (Merck) and 65 mM sodium cacodylate buffer for 2 hours at 4 °C to improve the contrast. After extensive washing with distilled water (5 × 10 min), samples were incubated for 60 min with 0.5% uranyl acetate (EMS) at 4 °C to improve cytoplasmic contrast. After washing with distilled water (3 × 10 min), samples were dehydrated with increasing concentration ethanol and embedded in Epon. […] Morphological effects were quantified for around 100 cells per condition.

[3] = test system: porcine red blood cells; assay: Hemolysis (heme release); conditions: peptide 0.63–40 μM, 60 min 37 °C, A405, 0.2% Triton X-100 = 100% lysis, N = 5–7
[4] = test system: RAW264.7 cells; assay: Cell viability, WST-1 assay; conditions: WST-1, 24 h, peptide up to 40 μM, no peptide = 100% viability
[5] = test system: Escherichia coli O78; conditions: for Antibacterial activity against E. coli O78 compared with parent or dimeric counterpart: N = 3–7; for Minimal Bactericidal Concentration (MBC): O78, 3 h
[6] = test system: LPS-induced NO production by RAW264.7 cells; assay type: cell-based, murine; conditions: 100 ng/ml LPS O111:B4, 24 h, Griess assay, compared with full-length PMAP-36
[7] = test system: LPS-induced TNFα secretion by RAW264.7 cells; assay: LPS stimulation, TNFα release (ELISA); assay type: cell-based, murine; conditions: for LPS neutralization, TNFα secretion: compared with full-length PMAP-36
[8] = test system: Escherichia coli O78; assay: Transmission electron microscopy of peptide-treated bacteria; assay type: cell-based; conditions: TEM, 5*10^8 CFU/ml, 60 min 37 °C
Description: as §1

[9] = Isothermal titration calorimetry, peptide binding to LPS; design: species or system Escherichia coli; conditions: ITC, 37 °C
Description: Isothermal titration calorimetry (ITC) was performed with the Low Volume NanoITC (TA Instruments-Waters LLC, New Castle, DE, USA) to determine interaction between LPS and the different peptides. 100 μM UltraPure LPS E. coli O111:B4 was diluted in MilliQ, after which 4x dilution in dPBS (Gibco) was made. Peptides were diluted to 800 μM in MilliQ, followed by 4-fold dilution in dPBS. The chamber was filled with 164 μl LPS, the peptide was titrated into the chamber with 1.96 μl every 300 seconds. Experiments were performed at 37 °C and analyzed using the Nano Analyze software (TA instruments-Waters LLC). All experiments were performed 2 times and corrected for buffer in buffer titration, after which the both experiments were averaged. Two independent models were used, except for LL-37 with one independent model fit, to determine the peptide-LPS interaction.

Row | Compound | Antibacterial activity against E. coli O78 compared with parent or dimeric counterpart ([5]; 10^6 CFU/ml, 3 h 37 °C) | LPS neutralization, NO production [6] | LPS neutralization, TNFα secretion ([7]; 100 ng/ml LPS O111:B4, 24 h) | Minimal Bactericidal Concentration (MBC) [5] [µM] | other results
1 | CC[C@H](C)[C@H](NC(=O)[C@H](CCCCN)NC(=O)[C@H](CCC(=O)O)NC(=O)[C@H](CCCCN)NC(=O)[C@H](CO)NC(=O)[C@H](CCCCN)NC(=O)[C@H](CCCNC(=N)N)NC(=O)[C@H](Cc1ccccc1)NC(=O)[C@H](Cc1ccccc1)NC(=O)[C@H](CC(=O)O)NC(=O)CNC(=O)[C@H](CC(C)C)NC(=O)[C@@H](N)CC(C)C)C(=O)NCC(=O)N[C@@H](CCCCN)C(=O)N[C@@H](CCC(=O)O)C(=O)N[C@@H](Cc1ccccc1)C(=O)N[C@@H](CCCCN)C(=O)N[C@@H](CCCNC(=N)N)C(=O)N[C@H](C(=O)N[C@H](C(=O)N[C@@H](CCC(N)=O)C(=O)N[C@@H](CCCNC(=N)N)C(=O)N[C@H](C(=O)N[C@@H](CCCCN)C(=O)N[C@@H](CC(=O)O)C(=O)N[C@@H](Cc1ccccc1)C(=O)N[C@@H](CC(C)C)C(=O)N[C@@H](CCCNC(=N)N)C(=O)N[C@@H](CC(N)=O)C(=O)N[C@@H](CC(C)C)C(=O)N[C@H](C(=O)N1CCC[C@H]1C(=O)N[C@@H](CCCNC(=N)N)C(=O)N[C@H](C(=O)N[C@@H](CCC(=O)O)C(=O)N[C@@H](CO)C(=O)O)[C@@H](C)O)C(C)C)[C@@H](C)CC)C(C)C)[C@@H](C)CC [LL-37] |  |  |  |  | Cytotoxicity against porcine PBMCs [1]: not; MBC at higher density of bacteria ([2]; 5*10^8 CFU/ml E. coli O78, density used for TEM): 160 µM; Hemolysis of porcine erythrocytes [3]: less than 10%; Cytotoxicity against RAW264.7 cells [4]: mildly cytotoxic
2 | Ac-GRFRRLRKKTRKRLKKIGKVLKWIPPIVGSIPLGS [mP1, monomeric analog of PMAP-36, Cys35 replaced by serine, last amino acid deleted] | slightly increased compared to their dimeric counterparts | as efficient as the full-length peptide | as efficient as the full-length peptide |  | 
3 | Ac-KIGKVLKWIPPIVGSIPLGS [mP16] | lost its antibacterial activity completely |  |  |  | 
4 | Ac-KRLKKIGKVLKWIPPIVGSIPLGCG (disulfide (positions not given here)) [Peptide P12, PMAP-36 analog with N-terminal truncation of 11 amino acids] | slightly more efficient than the full-length peptide | as strongly inhibited | as strongly inhibited |  | 
5 | Ac-KRLKKIGKVLKWIPPIVGSIPLGS [mP12, monomeric analog of P12] | identical to P12 | strongly reduced LPS neutralizing capacity | strongly reduced LPS neutralizing capacity |  | 
6 | Ac-RKKTRKRLKKIGKVLKWIPPIVGSIPLGS [mP7, monomeric analog of P7] | slightly increased compared to their dimeric counterparts | strongly reduced LPS neutralizing capacity | strongly reduced LPS neutralizing capacity |  | 
7 | I: Ac-GRFRRLRKKTRKRLKKIGKVLKWIPPIVGSIPLGCG / II: Ac-GRFRRLRKKTRKRLKKIGKVLKWIPPIVGSIPLGCG (disulfide I:35-II:35) [PMAP-36] |  |  |  | 5 to 10 | Morphological changes of E. coli O78 at sub-MBC ([8]; 4x below MBC (PMAP-36 5 μM, CATH-2 10 μM, LL-37 40 μM)): release of small vesicles; Morphological changes of E. coli O78 at MBC ([8]; MBC (PMAP-36 20 μM, CATH-2 40 μM, LL-37 160 μM)): DNA and ribosomes were clustered and located close to the inner membrane; MBC at higher density of bacteria ([2]; O78, 3 h): 20 µM; Concentration giving significant inhibition of E. coli O78 ([5]; 10^6 CFU/ml, 3 h 37 °C, vs no peptide control, N = 3–4): 2.5 µM; LPS binding [9]: strong LPS binding capacity; Concentration completely blocking TNFα secretion ([7]; 100 ng/ml LPS O111:B4, 24 h, N = 3): 10 µM; IC50 ([7]; 100 ng/ml LPS O111:B4, RAW264.7, 24 h, read-out: Concentration reducing LPS-induced macrophage activation for 50%): 5 µM
8 | I: Ac-KIGKVLKWIPPIVGSIPLGCG / II: Ac-KIGKVLKWIPPIVGSIPLGCG (disulfide I:20-II:20) [Peptide P16] |  | completely lost its LPS neutralizing capacity | completely lost its LPS neutralizing capacity | > 40 | LPS binding [9]: still bound strongly to LPS
9 | I: Ac-RKKTRKRLKKIGKVLKWIPPIVGSIPLGCG / II: Ac-RKKTRKRLKKIGKVLKWIPPIVGSIPLGCG (disulfide I:29-II:29) [Peptide P7] | slightly more efficient than the full-length peptide | as strongly inhibited | as strongly inhibited |  | 
10 | RFGRFLRKIRRFRPKVTITIQGSARF-NH2 [CATH-2] |  |  |  | 5 to 10 | MBC at higher density of bacteria ([2]; O78, 3 h): 40 µM
